Assay results taken from patent US20240254087A1, “SELECTIVE, PARTIAL, AND ARRESTIN-BIASED 5-HT2A AGONISTS WITH UTILITY IN VARIOUS DISORDERS” (Saint Joseph's University, priority 2021, published 2024).
“Also recorded” adds a separate entry of the source. Structures can show the parent of a compound that is named as a salt. Where two headings read alike, the source gives them in different places.

Experiments:
[1] = system: 5-HT2A; test: Ca2+ flux assay, 5-HT2A; assay type: cell-based, human; details: Gq/11 Ca2+ mobilization; higher number = skewed towards 5-HT2A
Description: (§1) Cell lines were maintained in DMEM containing 10% FBS, 10 μg/mL Blasticidin (Invivogen), and 100 μg/mL Hygromycin B (GoldBio). At least 20-24 hours before the assay, receptor expression was induced with tetracycline ([…]) and cells were seeded into 384-well poly-L-lysine-coated black plates at a density of 7,500 cells/well in DMEM containing 1% dialyzed FBS. On the day of the assay, the cells were incubated for 1 h at 37° C. with Fluo-4 Direct dye (Invitrogen, 20 μl/well) reconstituted in drug buffer (20 mM HEPES-buffered HBSS, pH 7.4) containing 2.5 mM probenecid. Drug dilutions were prepared at 5X final concentration in McCorvy buffer (20 mM HEPES-buffered HBSS, 0).1% BSA, 0.01% ascorbic acid pH 7.4). After dye load, cells were allowed to equilibrate to room temperature for 15 minutes, and then placed in a FLIPR^TETRA fluorescence imaging plate reader (Molecular Devices). Fluorescence for the FLIPR^TETRA were programmed to read baseline fluorescence for 10 s (1 read/s), and afterward 5 μl of drug per well was added and read for a total of 5-10 min (1 read/s). Fluorescence in each well was normalized to the average of the first 10 reads for baseline fluorescence, and then either maximum-fold peak increase over basal or area under the curve (AUC) was calculated. […] Data was plotted and non-linear regression was performed using “log(agonist) vs. response” in Graphpad Prism 8 to yield Emax and EC50 parameter estimates.

[2] = target: T1, 5-HT2B (Homo sapiens, UniProt P41595); test: BRET Gq dissociation, 5-HT2B; assay type: cell-based; design: expressed in transfected cells; host or cells: HEK293T, transient; details: for Emax: read-out: 5-HT2B Gq Dissociation (BRET) EMAX ± SEM (%5-HT)
[3] = system: male C57BL/6J mice; test: Head-twitch response (HTR) in mice; assay type: in vivo, mouse; details: for ED50: Mus musculus
Description: Male C57BL/6J mice (6-8 weeks old) from Jackson Labs (Bar Harbor, ME, USA) were used for the behavioral experiments. The mice were housed on a reversed light-dark cycle (lights on at 1900 h, off at 0700 h) in an AAAC-approved vivarium at the University of California San Diego. Mice were housed up to four per cage in a climate-controlled room and with food and water provided ad libitum except during behavioral testing. Testing was performed between 1000 and 1800 h (during the dark phase of the light-dark cycle). The studies were conducted in accordance with National Institutes Health (NIH) guidelines and were approved by the University of California San Diego Institutional Animal Care and Use Committee.
The mice were allowed to recover from the magnet implantation surgeries for at least 1 week prior to behavioral testing. HTR experiments were conducted in a well-lit room, and the mice were allowed to habituate to the room for at least 1 h prior to testing. Head twitches was assessed in a 12-cm diameter glass cylinder surrounded by a magnetometer coil. Coil voltage was low-pass filtered (2 kHz), amplified, and digitized (20-kHz sampling rate) using a Powerlab/8SP with LabChart v 7.3.2 (ADInstruments, Colorado Springs, CO, USA). […] HTR counts were analyzed using one-way ANOVAs. Dunnett's test was used for post hoc comparisons.

[4] = target: T2, 5-HT2C (Homo sapiens, UniProt P28335); test: BRET Gq dissociation, 5-HT2C; assay type: cell-based; design: expressed in transfected cells; host or cells: HEK293T, transient; details: for Emax: read-out: 5-HT2C Gq Dissociation (BRET) EMAX ± SEM (%5-HT)
T2 sequence (P28335 33-458): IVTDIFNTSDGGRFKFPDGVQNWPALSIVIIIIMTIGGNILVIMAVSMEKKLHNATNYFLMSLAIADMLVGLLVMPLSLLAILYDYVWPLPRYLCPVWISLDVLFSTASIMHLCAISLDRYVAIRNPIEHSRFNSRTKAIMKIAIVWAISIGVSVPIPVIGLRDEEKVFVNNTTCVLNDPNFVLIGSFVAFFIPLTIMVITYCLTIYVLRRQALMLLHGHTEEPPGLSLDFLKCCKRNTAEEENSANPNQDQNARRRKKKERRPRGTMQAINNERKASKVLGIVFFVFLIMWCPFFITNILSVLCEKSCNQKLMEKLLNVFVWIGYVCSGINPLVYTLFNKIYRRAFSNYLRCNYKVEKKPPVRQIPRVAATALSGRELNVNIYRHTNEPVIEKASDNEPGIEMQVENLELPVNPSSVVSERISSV

[5] = target: 5-HT2A (Homo sapiens, UniProt P28223); test: Ca2+ flux assay, 5-HT2A; assay type: cell-based; design: expressed in transfected cells; details: for Emax: read-out: 5-HT2A Emax % 5-HT, Ca2+ flux
Description: as §1

[6] = target: T2, 5-HT2C; test: Ca2+ flux assay, 5-HT2C; assay type: cell-based; design: expressed in transfected cells; details: for EC50: 5-HT2C EC50, nM; for Emax: read-out: 5-HT2C Emax % 5-HT
Description: as §1

[7] = target: T1, 5-HT2B; test: Ca2+ flux assay, 5-HT2B; assay type: cell-based; design: expressed in transfected cells; details: Ca2+ flux; for Emax: read-out: 5-HT2B Emax % 5-HT
Description: as §1

[8] = read-out: HTR ED50 μmol/kg (95% CI), SC, except DOI and 25D-NBOMe IP
[9] = read-out: HTR ED50 mg/kg (95% CI), SC, except DOI and 25D-NBOMe IP

Chain of 5-HT2A (Homo sapiens, UniProt P28223) (P28223 whole entry): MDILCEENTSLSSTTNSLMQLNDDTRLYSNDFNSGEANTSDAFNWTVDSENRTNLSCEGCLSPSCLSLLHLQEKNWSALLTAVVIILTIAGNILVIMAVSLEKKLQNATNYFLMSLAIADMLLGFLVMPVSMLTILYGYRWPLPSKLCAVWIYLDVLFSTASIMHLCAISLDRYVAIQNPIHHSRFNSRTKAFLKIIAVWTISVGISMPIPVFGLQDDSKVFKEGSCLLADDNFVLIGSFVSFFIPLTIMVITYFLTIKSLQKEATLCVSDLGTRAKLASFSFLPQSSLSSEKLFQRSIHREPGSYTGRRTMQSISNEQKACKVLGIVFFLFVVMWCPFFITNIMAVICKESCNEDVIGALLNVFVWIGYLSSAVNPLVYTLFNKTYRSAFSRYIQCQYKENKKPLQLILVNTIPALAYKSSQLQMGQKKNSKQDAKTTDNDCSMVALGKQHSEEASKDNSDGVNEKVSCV
T1 sequence (P41595 whole entry): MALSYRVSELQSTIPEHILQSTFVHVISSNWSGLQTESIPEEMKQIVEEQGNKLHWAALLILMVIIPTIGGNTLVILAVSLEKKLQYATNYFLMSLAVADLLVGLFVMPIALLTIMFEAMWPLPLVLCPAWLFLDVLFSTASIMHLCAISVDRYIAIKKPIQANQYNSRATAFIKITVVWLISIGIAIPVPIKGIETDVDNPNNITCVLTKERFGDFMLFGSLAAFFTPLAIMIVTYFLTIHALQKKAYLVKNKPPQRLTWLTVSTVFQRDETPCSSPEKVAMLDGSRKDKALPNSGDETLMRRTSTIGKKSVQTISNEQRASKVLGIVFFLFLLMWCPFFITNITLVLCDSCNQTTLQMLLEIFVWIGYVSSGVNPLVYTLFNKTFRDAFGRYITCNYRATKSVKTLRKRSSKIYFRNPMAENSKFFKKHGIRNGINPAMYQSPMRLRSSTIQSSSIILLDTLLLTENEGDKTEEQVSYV

SMILES | melting point [°C] | 5-HT2A/5-HT2c Selectivity Factor ΔLog(Emax/EC50) [1] | Max HTR response during a 30-min assessment (maximum counts ÷ baseline response) [3] | ED50 [3, 8] [µmol/kg] | ED50 [3, 9] [mg/kg] | EC50 ([5]; 5-HT2A EC50, nM, Ca2+ flux) [nM] | Emax [5] [%] | EC50 [6] [nM] | Emax [6] [%] | 5-HT2B EC50, nM [7] | Emax [7] [%] | other results
COc1cc([N+](=O)[O-])c(OC)cc1CCNCc1cccc2c1OC(F)(F)O2 (as salt: HCl) [25N-NBMDF2 (13), [(2,2-difluoro-2H-1,3-benzodioxol-4-yl)methyl][2-(2,5-dimethoxy-4-nitrophenyl)ethyl]amine] | 208.4 to 209.8 |  |  |  |  |  |  |  |  |  |  | 
COc1cc([N+](=O)[O-])c(OC)cc1CCNCc1ccccc1F [25N-NBF (7)] |  | 18.9 | 4.5-fold increase | 4.1 | 1.52 | 1.56 | 84 ± 1 | 28.8 | 82 ± 2 | No activity | < 10 | EC50 [2]: 75.9 nM; Emax [2]: 24.8 ± 3.2%; EC50 [4]: 14.1 nM; Emax [4]: 83.1 ± 2.1%
COc1cc([N+](=O)[O-])c(OC)cc1CCNCc1ccccc1Cl [25N-NBCl (8)] |  | 43.3 | 2.3-fold increase | 10.4 | 4.04 | 2.03 | 80 ± 2 | 89.3 | 81 ± 2 | No activity | < 10 | EC50 [2]: 204 nM; Emax [2]: 27 ± 3%; EC50 [4]: 21.4 nM; Emax [4]: 82.5 ± 2.8%
COc1cc([N+](=O)[O-])c(OC)cc1CCNCc1ccc(F)cc1 (as salt: HCl) [25N-NB-4-F (25), [2-(2,5-dimethoxy-4-nitrophenyl)ethyl][(4-fluorophenyl)methyl]amine] | 180 to 181 |  |  |  |  |  |  |  |  |  |  | 
COc1cc(Br)c(CCNCc2cccc(C)c2O)cc1OC (as salt: HCl) [(43), 2-(((2-bromo-4,5-dimethoxyphenethyl)-amino)-methyl)-6-methylphenol] | 169.4 to 169.9 |  |  |  |  |  |  |  |  |  |  | 
COc1cc([N+](=O)[O-])c(OC)cc1CCNCc1ccccc1-c1ccccc1 (as salt: HCl) [25N-NBPh (17), ({[1,1′-biphenyl]-2-yl}methyl)[2-(2,5-dimethoxy-4-nitrophenyl)ethyl]amine] | 181.5 to 182.5 |  |  |  |  |  |  |  |  |  |  | 
COc1cc([N+](=O)[O-])c(OC)cc1CCNCc1ccccc1Br [25N-NBBr (9)] |  | 61.9 | 4.7-fold increase | 14.6 | 6.31 | 2.36 | 79 ± 2 | 144 | 78 ± 2 | No activity | < 10 | EC50 [2]: 245 nM; Emax [2]: 17 ± 2.1%; EC50 [4]: 30.9 nM; Emax [4]: 81 ± 2.3%
CCOc1ccccc1CNCCc1cc(OC)c([N+](=O)[O-])cc1OC [25N-NBOEt (5)] |  | 1.0 | 13.2-fold increase | 1.44 | 0.57 | 0.72 | 87 ± 2 | 0.88 | 99 ± 1 | No activity | < 10 | 
COc1cc([N+](=O)[O-])c(OC)cc1CCNCc1ccc(C)cc1 (as salt: HCl) [25N-NB-4-Me (23), [2-(2,5-dimethoxy-4-nitrophenyl)ethyl] [(4-methylphenyl)methyl]amine] | 182 to 184 |  |  |  |  |  |  |  |  |  |  | 
COc1cc([N+](=O)[O-])c(OC)cc1CCNCc1ccccc1C [25N-NBMe (6)] |  | 26.7 | 8.0-fold increase | 3.24 | 1.19 | 1.19 | 85 ± 1 | 33.2 | 89 ± 2 | No activity | < 10 | EC50 [2]: 9.55 nM; Emax [2]: 22.2 ± 3.2%; EC50 [4]: 11.5 nM; Emax [4]: 89.4 ± 2.3%
COc1cc([N+](=O)[O-])c(OC)cc1CCNCc1cccc(C)c1 (as salt: HCl) [25N-NB-3-Me (22), [2-(2,5-dimethoxy-4-nitrophenyl)ethyl][(3-methylphenyl)methyl]amine] | 194.4 to 195.5 |  |  |  |  |  |  |  |  |  |  | 
COc1cc([N+](=O)[O-])c(OC)cc1CCNCc1ccccc1OC (as salt: HCl) [25N-NBOMe (4), [2-(2,5-dimethoxy-4-nitrophenyl)ethyl] [(2-methoxyphenyl)methyl]amine] | 166.4 to 167.8 |  |  |  |  |  |  |  |  |  |  | 
COc1cc(Br)cc(OC)c1CC(C)NCc1cccc2ccccc12 (stereo not drawn) (as salt: HCl) [(33)] | 207.9 to 209.2 |  |  |  |  |  |  |  |  |  |  | 
COc1cc(CCNCc2cccc3ccccc23)cc(OC)c1Br (as salt: HCl) [(31), 2-(4-bromo-3,5-dimethoxyphenyl)-N-[(naphthalen-1-yl)-methyl]ethan-1-amine] | 232.8 to 234.3 |  |  |  |  |  |  |  |  |  |  | 
COc1cc([N+](=O)[O-])c(OC)cc1CCNCc1ccccc1 (as salt: HCl) [25N-NB (2), Benzyl[2-(2,5-dimethoxy-4-nitrophenyl)ethyl]amine] | 220 to 221 |  |  |  |  |  |  |  |  |  |  | 
COc1cc([N+](=O)[O-])c(OC)cc1CCNCc1cccc(C)c1O (as salt: HCl) [25N-NB-2-OH-3-Me (18), 2-({[2-(2,5-dimethoxy-4-nitrophenyl)ethyl]amino}methyl)-6-methylphenol] | 177.6 to 179.5 |  |  |  |  |  |  |  |  |  |  | 
COc1cc([N+](=O)[O-])c(OC)cc1CCNCc1ccccc1OC(F)F [25N-NBOCF2H (11), {[2-(difluoromethoxy)phenyl]methyl}[2-(2,5-dimethoxy-4-nitrophenyl)ethyl]amine] |  | 1.9 | 13.5-fold increase | 4.32 | 1.81 | 1.92 | ≤ 77 | 3.99 | 101 ± 1 | No activity | < 10 | Induction of the HTR in mice (in words) [3]: lacked a HTR; also recorded: failed to induce a HTR; 5-HT2A Emax % 5-HT ([5]; Ca2+ flux): 95 ± 1 % 5-HT
COc1cc([N+](=O)[O-])c(OC)cc1CCNCc1ccccc1O [25N-NBOH (3), 2-({[2-(2,5-dimethoxy-4-nitrophenyl)ethyl]amino}methyl)phenol] |  | 4.9 | 8.8-fold increase | 0.19 | 0.07 |  | 87 ± 2 | 1.78 | 100 ± 2 | No activity | < 10 | EC50 ([5]; 5-HT2A (pEC50 ± SEM), Ca2+ flux): 0.316 nM
